Measured values as given in patent publication US20220144815A1, “1,3,4-OXADIAZOLES AND THEIR DERIVATIVES AS NEW ANTIFUNGAL AGENTS” (Bayer Aktiengesellschaft, priority 2018, published 2022).
Where two headings read alike, the source gives them in different places.

Key:
[1] = Log P by HPLC on reversed phase columns, method [a] (EEC directive 79/831 Annex V.A8); format: physicochemical; settings: reversed phase HPLC column, read-out: logP
Outline: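 Log P calibrated with C3–C16 straight-chain alkan-2-ones of known Log P, interpolating linearly between retention times. Method per EEC 79/831 Annex V.A8: reversed-phase LC-UV in the acidic range, water/0.1% formic acid and acetonitrile gradient from 10% to 95% acetonitrile.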

[2] = test system: Botrytis cinerea; assay: Example C: in vivo preventive test (grey mould) on gherkin or cabbage; settings: 500 ppm of active ingredient, preventive spray, evaluated 4 to 5 days after inoculation, read-out: efficacy
Protocol: Solvent: 5% by volume of dimethyl sulfoxide • 10% by volume of acetone Emulsifier: 1 μl of Tween® 80 per mg of active ingredient The tested compounds were made soluble and homogenized in a mixture of dimethyl sulfoxide/acetone/Tween® 80 and then diluted in water to the desired concentration. The young plants of gherkin or cabbage were treated by spraying the tested compound prepared as described above. Control plants were treated only with an aqueous solution of acetone/dimethyl sulfoxide/Tween® 80. After 24 hours, the plants were contaminated by spraying the leaves with an aqueous suspension of Botrytis cinerea spores. The contaminated gherkin plants were incubated for 4 to 5 days at 17° C. and at 90% relative humidity. The contaminated cabbage plants were incubated for 4 to 5 days at 20° C. and at 100% relative humidity. The test was evaluated 4 to 5 days after the inoculation. 0% means an efficacy which corresponds to that of the control plants while an efficacy of 100% means that no disease was observed.

[3] = test system: Alternaria brassicae; assay: Example E: in vivo preventive test (cabbage); settings: 144 h, 500 ppm of tested compound, preventive spray, evaluated 6 days after inoculation, read-out: efficacy
Protocol: Solvent: 5% by volume of dimethyl sulfoxide • 10% by volume of acetone Emulsifier: 1 μL of Tween® 80 per mg of active ingredient The tested compounds were made soluble and homogenized in a mixture of Dimethyl sulfoxide/Acetone/Tween® 80 and then diluted in water to the desired concentration. The young plants of cabbage were treated by spraying the tested compound prepared as described above. Control plants were treated only with an aqueous solution of Acetone/Dimethyl sulfoxide/Tween® 80. After 24 hours, the plants were contaminated by spraying the leaves with an aqueous suspension of Alternaria brassicae spores. The contaminated cabbage plants were incubated for 6 days at 20° C. and at 100% relative humidity. The test was evaluated 6 days after the inoculation. 0% means an efficacy which corresponds to that of the control plants while an efficacy of 100% means that no disease was observed.

[4] = test system: Colletotrichum lindemuthianum; assay: Example B: in vitro cell test, spore germination and mycelium growth in liquid culture; format: cell-based; settings: 144 h, 20 ppm of tested compound, 6 days incubation, read-out: efficacy (inhibition of fungal growth)
Outline: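 Compounds in DMSO (final ≤1%) added to glucose/peptone/yeast extract liquid medium containing C. lindemuthianum spores. After 6 days incubation, mycelium growth measured spectrometrically; inhibition calculated from absorbance versus compound-free control wells.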

[5] = test system: Phakopsora pachyrhizi; assay: Example F: in vivo preventive test (soybeans), DMSO/acetone/Tween 80; settings: 288 h, 500 ppm of tested compound, preventive spray, soybean, evaluated 12 days after inoculation, read-out: efficacy
Protocol: Solvent: 5% by volume of dimethyl sulfoxide • 10% by volume of acetone
Emulsifier: 1 μL of Tween® 80 per mg of active ingredient
The tested compounds were made soluble and homogenized in a mixture of dimethyl sulfoxide/acetone/Tween® 80 and then diluted in water to the desired concentration.
The young plants of wheat were treated by spraying the tested compound prepared as described above. Control plants were treated only with an aqueous solution of acetone/dimethyl sulfoxide/Tween® 80.
After 24 hours, the plants were contaminated by spraying the leaves with an aqueous suspension of Phakospora pachyrhizi spores. The contaminated soybean plants were incubated for 24 hours at 24° C. and at 100% relative humidity and then for 11 days at 24° C. and at 70-80% relative humidity.
The test was evaluated 12 days after the inoculation. 0% means an efficacy which corresponds to that of the control plants while an efficacy of 100% means that no disease was observed.

[6] = test system: Puccinia recondita; assay: Example D: in vivo preventive test (brown rust on wheat); settings: 264 h, 500 ppm of tested compound, preventive spray, evaluated 11 days after inoculation, read-out: efficacy
Protocol: Solvent: 5% by volume of dimethyl sulfoxide • 10% by volume of acetone Emulsifier: 1 μL of Tween® 80 per mg of active ingredient The tested compounds were made soluble and homogenized in a mixture of dimethyl sulfoxide/acetone/Tween® 80 and then diluted in water to the desired concentration. The young plants of wheat were treated by spraying the tested compound prepared as described above. Control plants were treated only with an aqueous solution of acetone/dimethyl sulfoxide/Tween® 80. After 24 hours, the plants were contaminated by spraying the leaves with an aqueous suspension of Puccinia recondita spores. The contaminated wheat plants were incubated for 24 hours at 20° C. and at 100% relative humidity and then for 10 days at 20° C. and at 70-80% relative humidity. The test was evaluated 11 days after the inoculation. 0% means an efficacy which corresponds to that of the control plants while an efficacy of 100% means that no disease was observed.

[7] = log P determined according to method [a] (HPLC on reversed phase columns)
[8] = method [a], HPLC on reversed phase columns

| SMILES | chromatographic logP [1, 7] | pest or weed control at 500 ppm [2] | pest or weed control at 500 µg/mL [3] | inhibition of growth at 20 µg/mL [4] | chromatographic logP [1, 8] | pest or weed control at 500 µg/mL [5] | pest or weed control at 500 µg/mL [6] |
| --- | --- | --- | --- | --- | --- | --- | --- |
| Fc1ccccc1Nc1ncc(-c2nnc(C(F)F)s2)cn1 [I.113, 5-[5-(difluoromethyl)-1,3,4-thiadiazol-2-yl]-N-(2-fluorophenyl)pyrimidin-2-amine] | 2.77 | 90 to 100% | 90 to 100% |  |  |  |  |
| CC(Sc1ncc(-c2nnc(C(F)F)o2)cn1)c1ccccc1 (racemic) [I.123, 5-[5-(difluoromethyl)-1,3,4-oxadiazol-2-yl]-2-{[(1RS)-1-phenylethyl]sulfanyl}pyrimidine] | 3.72 | 90 to 100% |  | 90 to 100% |  |  |  |
| FC(F)c1nnc(-c2cnc(N[C@@H]3C[C@H]3c3ccccc3)nc2)o1 (racemic) [I.196, 5-[5-(difluoromethyl)-1,3,4-oxadiazol-2-yl]-N-[rac-(1R,2S)-2-phenylcyclopropyl]pyrimidin-2-amine] |  | 90 to 100% | 90 to 100% | 70 to 79% | 2.94 | 90 to 100% |  |
| Fc1ccccc1Nc1ccc(-c2nnc(C(F)(F)Cl)o2)cn1 [I.053, 5-{5-[chloro(difluoro)methyl]-1,3,4-oxadiazol-2-yl}-N-(2-fluorophenyl)pyridin-2-amine] |  | 80 to 89% |  |  |  |  |  |
| FC(F)c1nnc(-c2cnc(NC3(C4(c5ccccc5)CC4)CC3)nc2)o1 [I.170, 5-[5-(difluoromethyl)-1,3,4-oxadiazol-2-yl]-N-[1′-phenyl[1,1′-bi(cyclopropyl)]-1-yl]pyrimidin-2-amine] |  | 70 to 79% | 90 to 100% |  | 3.64 |  |  |
| FC(F)c1nnc(-c2cnc(NCC3(c4ccccc4)CC3)nc2)o1 [I.135, 5-[5-(difluoromethyl)-1,3,4-oxadiazol-2-yl]-N-[(1-phenylcyclopropyl)methyl]pyrimidin-2-amine] | 3.25 | 70 to 79% | 90 to 100% | 80 to 89% |  |  |  |
| Fc1ccccc1Nc1ncc(-c2nnc(C(F)(F)F)o2)cn1 [I.116, N-(2-fluorophenyl)-5-[5-(trifluoromethyl)-1,3,4-oxadiazol-2-yl]pyrimidin-2-amine] | 2.99 | 80 to 89% |  |  |  |  |  |
| O=C(Cc1ccccc1)Nc1ccc(-c2nnc(C(F)F)o2)cn1 [I.050, N-{5-[5-(difluoromethyl)-1,3,4-oxadiazol-2-yl]pyridin-2-yl}-2-phenylacetamide] |  | 80 to 89% |  |  |  |  |  |
| Fc1cccc(F)c1C1(Nc2ncc(-c3nnc(C(F)F)o3)cn2)CCC1 [I.177, 5-[5-(difluoromethyl)-1,3,4-oxadiazol-2-yl]-N-[1-(2,6-difluorophenyl)cyclobutyl]pyrimidin-2-amine] |  |  | 80 to 89% | 90 to 100% | 3.5 | 90 to 100% | 90 to 100% |
| FC(F)c1nnc(-c2cnc(Nc3ccccc3-c3ccccc3)nc2)o1 [I.166, N-([biphenyl]-2-yl)-5-[5-(difluoromethyl)-1,3,4-oxadiazol-2-yl]pyrimidin-2-amine] | 3.37 |  | 70 to 79% | 80 to 89% |  | 90 to 100% | 90 to 100% |
| Fc1ccc(C(Nc2ncc(-c3nnc(C(F)F)o3)cn2)C(F)(F)F)cc1 (racemic) [I.181, 5-[5-(difluoromethyl)-1,3,4-oxadiazol-2-yl]-N-[(1RS)-2,2,2-trifluoro-1-(4-fluorophenyl)ethyl]pyrimidin-2-amine] |  | 70 to 79% |  | 80 to 89% | 3.22 | 90 to 100% | 90 to 100% |
| Fc1ccc(-c2ncc(-c3nnc(C(F)F)o3)cn2)cc1 [I.077, 5-[5-(difluoromethyl)-1,3,4-oxadiazol-2-yl]-2-(4-fluorophenyl)pyrimidine] |  | 70 to 79% |  | 90 to 100% |  |  |  |
| Nc1ccc(-c2nnc(C(F)F)o2)cn1 [I.030, 5-[5-(difluoromethyl)-1,3,4-oxadiazol-2-yl]pyridin-2-amine] |  | 80 to 89% |  |  |  |  |  |
| Fc1ccc(C2(Nc3ncc(-c4nnc(C(F)F)o4)cn3)CC2)cc1 [I.146, 5-[5-(difluoromethyl)-1,3,4-oxadiazol-2-yl]-N-[1-(4-fluorophenyl)cyclopropyl]pyrimidin-2-amine] | 2.75 | 90 to 100% | 90 to 100% | 70 to 79% |  | 90 to 100% | 90 to 100% |
| FC(F)c1nnc(-c2cnc(Nc3ccccc3)nc2)o1 [I.076, 5-[5-(difluoromethyl)-1,3,4-oxadiazol-2-yl]-N-phenylpyrimidin-2-amine] |  | 90 to 100% | 90 to 100% |  |  |  |  |
| CC1(C(=O)Nc2ccc(-c3nnc(C(F)F)o3)cn2)CC1 [I.045, N-{5-[5-(difluoromethyl)-1,3,4-oxadiazol-2-yl]pyridin-2-yl}-1-methylcyclopropanecarboxamide] |  | 90 to 100% | 90 to 100% |  |  |  |  |
| COc1ccc(C2(Nc3ncc(-c4nnc(C(F)F)o4)cn3)CC2)cc1 [I.157, 5-[5-(difluoromethyl)-1,3,4-oxadiazol-2-yl]-N-[1-(4-methoxyphenyl)cyclopropyl]pyrimidin-2-amine] | 2.62 |  | 70 to 79% | 80 to 89% |  | 90 to 100% | 90 to 100% |
| FC(F)c1nnc(-c2cnc(NC3(c4ccccc4)CCCC3)nc2)o1 [I.153, 5-[5-(difluoromethyl)-1,3,4-oxadiazol-2-yl]-N-(1-phenylcyclopentyl)pyrimidin-2-amine] | 3.57 | 70 to 79% |  |  |  |  |  |
| COc1ccccc1CN(OC)c1ncc(-c2nnc(C(F)F)o2)cn1 [I.161, N-{5-[5-(difluoromethyl)-1,3,4-oxadiazol-2-yl]pyrimidin-2-yl}-N-(2-methoxybenzyl)-O-methylhydroxylamine] | 2.97 | 70 to 79% |  |  |  |  |  |
| CC(=O)Nc1ccc(-c2nnc(C(F)F)o2)cn1 [I.034, N-{5-[5-(difluoromethyl)-1,3,4-oxadiazol-2-yl]pyridin-2-yl}acetamide] |  | 80 to 89% |  |  |  |  |  |
